The values below come from PubChem BioAssay AID328 (DTP/NCI, 2004).

The assay concerns BDF1 mice, P388 leukemia ip, median survival T/C. As to the kind of experiment: NCI In Vivo Anticancer Drug Screen. Data for tumor model P388 Leukemia (intraperitoneal) in B6D2F1 (BDF1) mice. The settings on record: endpoint: median survival time, higher = longer survival. The method, boiled down: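 Steps: implant the tumour, treat one group with compound and another with vehicle, record survival, then divide treated by control.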

Setting [1] is: dose: 25.0 mg/kg/injection, schedule: Q01DX009 (ip), vehicle: saline.
[2] abbreviates: dose: 50.0 mg/kg/injection, schedule: Q04DX003 (ip), vehicle: saline.
[3] abbreviates: dose: 100.0 mg/kg/injection, schedule: Q04DX003 (ip), vehicle: saline.
[4] abbreviates: dose: 50.0 mg/kg/injection, schedule: Q01DX009 (ip), vehicle: saline with Tween-80.
Where [5] appears, read: dose: 100.0 mg/kg/injection, schedule: Q01DX009 (ip), vehicle: saline with Tween-80.
The mark [6] stands for this setting: dose: 200.0 mg/kg/injection, schedule: Q01DX009 (ip), vehicle: saline with Tween-80.
Where [7] appears, read: dose: 12.5 mg/kg/injection, schedule: Q01DX009 (ip), vehicle: saline with Tween-80.
Setting [8] is: dose: 25.0 mg/kg/injection, schedule: Q01DX009 (ip), vehicle: saline with Tween-80.
Setting [9] is: dose: 200.0 mg/kg/injection, schedule: Q04DX003 (ip), vehicle: saline.
[10] abbreviates: dose: 25.0 mg/kg/injection, schedule: Q01DX009 (ip), vehicle: water.
The mark [11] stands for this setting: dose: 50.0 mg/kg/injection, schedule: Q04DX003 (ip), vehicle: water.
Setting [12] is: dose: 100.0 mg/kg/injection, schedule: Q04DX003 (ip), vehicle: water.
Where [13] appears, read: dose: 200.0 mg/kg/injection, schedule: Q04DX003 (ip), vehicle: water.

SMILES strings stand for the structures. Where “and” joins values, the source holds several entries; their conditions need not be identical. Equal values may be shown once. Toxic doses and inconclusive results are not listed.

Regarding `N=C(N)SCc1ccc(C(=O)Oc2ccc([N+](=O)[O-])cc2)cc1`, the T/C was 104 % of control under setting [1]; 90 % of control (dose: 50.0 mg/kg/injection, schedule: Q01DX009 (ip), vehicle: saline); 110 % of control under setting [2]; 110 % of control under setting [3].

With `O=[N+]([O-])c1ccc(N2CCN(CCO)CC2)c2c1no[n+]2[O-]`, the T/C (dose: 15.0 mg/kg/injection, schedule: Q01DX009 (ip), vehicle: saline with Tween-80) is 154 % of control and the T/C (dose: 30.0 mg/kg/injection, schedule: Q01DX009 (ip), vehicle: saline with Tween-80) is 161 % of control.

Regarding `O=C1CCC([N+](=O)[O-])C(c2ccccc2Cl)N1` (stereo not given), the T/C is, setting by setting: under setting [4], 99 % of control; under setting [5], 86 % of control; under setting [6], 94 % of control.

As to `CCOc1ccc(OCC)c2c1C(=O)c1ccccc1C2=O`, the T/C was 100 % of control (dose: 100.0 mg/kg/injection, schedule: Q04DX003 (ip), vehicle: Klucel (hydroxypropylcellulose) (HPC)); 105 % of control (dose: 200.0 mg/kg/injection, schedule: Q04DX003 (ip), vehicle: Klucel (hydroxypropylcellulose) (HPC)); 111 % of control (dose: 400.0 mg/kg/injection, schedule: Q04DX003 (ip), vehicle: Klucel (hydroxypropylcellulose) (HPC)).

As for `FC(F)(F)C1=N/C(=C2\N=C(C(F)(F)F)N=C2Cl)C(Cl)=N1`, the T/C runs as follows: (dose: 0.39 mg/kg/injection, schedule: Q04DX003 (ip), vehicle: saline with Tween-80) 100 % of control; (dose: 0.78 mg/kg/injection, schedule: Q04DX003 (ip), vehicle: saline with Tween-80) 114 % of control; (dose: 1.56 mg/kg/injection, schedule: Q01DX009 (ip), vehicle: saline with Tween-80) 104 % of control; (dose: 1.56 mg/kg/injection, schedule: Q04DX003 (ip), vehicle: saline with Tween-80) 100 % of control and 110 % of control; (dose: 3.12 mg/kg/injection, schedule: Q01DX009 (ip), vehicle: saline with Tween-80) 116 % of control; (dose: 3.12 mg/kg/injection, schedule: Q04DX003 (ip), vehicle: saline with Tween-80) 96 % of control and 100 % of control. Besides, the T/C reads like this: (dose: 6.25 mg/kg/injection, schedule: Q01DX009 (ip), vehicle: saline with Tween-80) 116 % of control; (dose: 6.25 mg/kg/injection, schedule: Q04DX003 (ip), vehicle: saline with Tween-80) 91 % of control and 100 % of control; under setting [7], 111 % of control; (dose: 12.5 mg/kg/injection, schedule: Q04DX003 (ip), vehicle: saline with Tween-80) 88 % of control; under setting [8], 94 % of control; (dose: 25.0 mg/kg/injection, schedule: Q04DX003 (ip), vehicle: saline with Tween-80) 88 % of control.

`CC(=O)CC(C)=O.CC(=O)CC(C)=O.[Fe]`: the T/C reads like this: (dose: 6.25 mg/kg/injection, schedule: Q01DX009 (ip), vehicle: saline) 113 % of control; (dose: 6.25 mg/kg/injection, schedule: Q04DX003 (ip), vehicle: saline) 113 % of control; (dose: 12.5 mg/kg/injection, schedule: Q01DX009 (ip), vehicle: saline) 104 % of control; (dose: 12.5 mg/kg/injection, schedule: Q04DX003 (ip), vehicle: saline) 113 % of control; under setting [1], 113 % of control; (dose: 25.0 mg/kg/injection, schedule: Q04DX003 (ip), vehicle: saline) 113 % of control. In addition, the T/C (dose: 35.0 mg/kg/injection, schedule: Q04DX003 (ip), vehicle: saline) was 113 % of control.

As to `CN(C)CCCNC(CC#N)CCC#N` (stereo not given), the T/C under setting [2] is 100 % of control, the T/C under setting [3] is 109 % of control and the T/C under setting [9] was 100 % of control.

Consider `CCC12C=CCN3CCC4(c5c(C(c6ccc(OC)cc6)c6c(CN(C)C)c7ccccc7n6C)cc(OC)cc5N(C)C4C(O)(C(=O)OC)C1OC(C)=O)C32` (stereo not given), for which the T/C runs as follows: (dose: 0.3 mg/kg/injection, schedule: Q01DX009 (ip), vehicle: saline) 93 % of control; (dose: 0.6 mg/kg/injection, schedule: Q01DX009 (ip), vehicle: saline) 98 % of control; (dose: 4.0 mg/kg/injection, schedule: Q01DX009 (ip), vehicle: saline) 97 % of control; (dose: 8.0 mg/kg/injection, schedule: Q01DX009 (ip), vehicle: saline) 96 % of control; (dose: 15.0 mg/kg/injection, schedule: Q01DX009 (ip), vehicle: saline) 107 % of control; (dose: 16.0 mg/kg/injection, schedule: Q01DX009 (ip), vehicle: saline) 95 % of control. Moreover, where the note is “dose: 60.0 mg/kg/injection, schedule: Q01DX009 (ip), vehicle: saline”, the T/C is 123 % of control.

As to `O=Cc1ccc(/C=C2\NC(=O)NC2=O)cc1`, the T/C is, setting by setting: (dose: 3.12 mg/kg/injection, schedule: Q01DX009 (ip), vehicle: water) 89 % of control; (dose: 6.25 mg/kg/injection, schedule: Q01DX009 (ip), vehicle: Klucel (hydroxypropylcellulose) (HPC)) 100 % of control; (dose: 6.25 mg/kg/injection, schedule: Q01DX009 (ip), vehicle: water) 106 % of control; (dose: 12.5 mg/kg/injection, schedule: Q01DX009 (ip), vehicle: Klucel (hydroxypropylcellulose) (HPC)) 95 % of control; (dose: 12.5 mg/kg/injection, schedule: Q01DX009 (ip), vehicle: water) 120 % of control; (dose: 25.0 mg/kg/injection, schedule: Q01DX009 (ip), vehicle: Klucel (hydroxypropylcellulose) (HPC)) 92 % of control. The T/C under setting [10] was 121 % of control; the T/C (dose: 50.0 mg/kg/injection, schedule: Q01DX009 (ip), vehicle: Klucel (hydroxypropylcellulose) (HPC)) was 92 % of control; the T/C under setting [11] is 103 % of control; the T/C under setting [12] was 87 % of control; the T/C under setting [13] is 119 % of control.

For the molecule `COc1ccc(C2=C/C(=C3\C(=O)Oc4ccccc4C3=O)SS2)cc1`, the T/C under setting [4] was 90 % of control, the T/C under setting [5] is 92 % of control and the T/C under setting [6] is 90 % of control.

In the case of `CC1(C)COCN1COC1CCCCC1`, under setting [6], the T/C is 90 % of control.

For `COc1cc(C=Nc2cccc(C(=O)O)c2)ccc1N(CCCl)CCCl`, the T/C (dose: 66.0 mg/kg/injection, schedule: Q04DX003 (ip), vehicle: saline with Tween-80) is 260 % of control.

For the molecule `Cn1c(=N)ccn(C2OC(CO)C(O)C2O)c1=O` (stereo not given) (tested in a mixture with another compound), the T/C was 111 % of control under setting [9] and 165 % of control (dose: 400.0 mg/kg/injection, schedule: Q04DX003 (ip), vehicle: saline).

For `CCOC(=O)CC(C)C(Br)(C(=O)OCC)C(=O)OCC` (stereo not given), the T/C was 110 % of control under setting [10]; 108 % of control (dose: 25.0 mg/kg/injection, schedule: Q04DX003 (ip), vehicle: water); 121 % of control (dose: 50.0 mg/kg/injection, schedule: Q01DX009 (ip), vehicle: water); 110 % of control under setting [11]; 114 % of control (dose: 100.0 mg/kg/injection, schedule: Q01DX009 (ip), vehicle: water); 117 % of control under setting [12]. Moreover, the T/C under setting [13] was 106 % of control.

`O=C1c2ccccc2C(=O)c2c(Cl)cccc21`: the T/C under setting [7] is 113 % of control; the T/C under setting [8] was 100 % of control; the T/C under setting [4] was 100 % of control; the T/C (dose: 100.0 mg/kg/injection, schedule: Q04DX003 (ip), vehicle: saline with Tween-80) was 95 % of control; the T/C (dose: 200.0 mg/kg/injection, schedule: Q04DX003 (ip), vehicle: saline with Tween-80) was 100 % of control; the T/C (dose: 400.0 mg/kg/injection, schedule: Q04DX003 (ip), vehicle: saline with Tween-80) is 95 % of control.

On to `CC1=NN(CCO)C(=O)C1`, for which the T/C reads like this: under setting [4], 95 % of control; under setting [5], 92 % of control; under setting [6], 93 % of control.
